Reference: patent US8168667B2 (Galapagos NV, priority 2006, dated 2012)
Where two headings read alike, the source gives them in different places.

Columns and labels:
[1] = target: human androgen receptor (hAR) (Homo sapiens, UniProt P10275); test: Functional response test: hAR transactivation (luciferase reporter) in HALP2 cells; assay type: cell-based
Procedure, shortened: (§1)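 HALP2 cells are HeLa cells stably transfected with CMV-driven hAR and a probasin ARE-luciferase reporter. They were seeded 24 h ahead, then exposed to compounds for 20 hours at 37° C in phenol red-free DMEM with 5% desteroided serum. Luciferase luminescence was measured after lysis; for antagonist mode, compounds were tested against increasing DHT concentrations.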

[2] = target: T1, human androgen receptor (hAR) (Homo sapiens, UniProt P10275); test: as above; assay type: cell-based; remark: listed apart in the source
T1 sequence (P10275 1-920): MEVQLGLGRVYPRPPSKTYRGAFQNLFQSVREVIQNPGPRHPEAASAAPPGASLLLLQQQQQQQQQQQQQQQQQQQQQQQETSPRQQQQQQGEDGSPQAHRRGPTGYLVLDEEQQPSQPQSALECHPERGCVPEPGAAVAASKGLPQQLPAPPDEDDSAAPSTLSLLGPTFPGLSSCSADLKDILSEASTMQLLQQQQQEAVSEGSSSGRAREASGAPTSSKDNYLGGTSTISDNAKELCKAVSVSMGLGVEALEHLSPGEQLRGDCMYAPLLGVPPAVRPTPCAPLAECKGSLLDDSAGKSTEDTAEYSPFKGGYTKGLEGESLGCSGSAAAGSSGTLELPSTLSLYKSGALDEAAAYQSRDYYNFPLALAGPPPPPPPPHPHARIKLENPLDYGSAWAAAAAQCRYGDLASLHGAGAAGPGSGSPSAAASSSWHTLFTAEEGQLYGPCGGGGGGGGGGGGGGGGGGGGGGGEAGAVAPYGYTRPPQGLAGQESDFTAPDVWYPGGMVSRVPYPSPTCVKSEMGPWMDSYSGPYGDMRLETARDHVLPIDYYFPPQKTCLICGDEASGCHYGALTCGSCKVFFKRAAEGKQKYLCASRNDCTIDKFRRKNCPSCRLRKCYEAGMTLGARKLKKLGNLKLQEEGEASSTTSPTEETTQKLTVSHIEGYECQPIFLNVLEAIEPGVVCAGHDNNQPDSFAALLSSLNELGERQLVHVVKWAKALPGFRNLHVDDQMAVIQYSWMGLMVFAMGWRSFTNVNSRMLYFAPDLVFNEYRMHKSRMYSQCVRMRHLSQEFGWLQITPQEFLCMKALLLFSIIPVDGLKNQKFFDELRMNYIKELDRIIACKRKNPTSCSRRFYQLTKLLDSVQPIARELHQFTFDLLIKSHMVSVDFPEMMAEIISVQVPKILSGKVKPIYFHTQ
Procedure, shortened: as §1

[3] = test system: castrated C57/B16J male mice; test: Model of osteoporosis in male mice (trabecular BMD of tibia); assay type: in vivo; conditions: Mus musculus, sc, 672 h, ORX mice, 30 mg/kg subcutaneously daily, day 1 to 28, ORX = 0%, SHAM = 100%, read-out: efficacy in protecting mineral bone density
Method: C57/B16J male mice aged 12 weeks and weighing approximately 20-25 g (Charles River, Les Oncins, FRANCE) were operated on as described above with regard to the rats. Castration mimicked the bone loss caused by androgen deficit. The aim of the study is to evaluate the capacity of the compounds to preserve and/or increase the bone mass. This is evaluated by measuring the bone mineral density (BMD). This model has previously been documented by Sims et al. 2003 J. Clin. Invest. 111(9):1319-27.
The animals were separated randomly into various groups and were kept in an environment at 22±2° C. with an alternating day/night cycle of 12 hours and ad libitum access to food and drink.
The tested compounds were administered from post-surgery day 1 and until day 28 preceding sacrifice (day 29). The mice were treated daily under the conditions defined below: • 1. SHAM control group: Vehicle (10/90 ethanol/corn oil mixture) administered subcutaneously. • 2. ORX control group: Vehicle (10/90 ethanol/corn oil mixture) administered subcutaneously. • 3. Treated ORX group: The tested compounds were administered individually subcutaneously in the vehicle described above, in a dose of 30 mg/kg.
During necropsy, the mice were first weighed then decapitated. The two hindlimbs were then carefully disarticulated at the femoral neck. The right hindlimb was frozen at −20° C. Densitometric quantitative analysis was performed on the trabecular portion of the tibia proximal metaphysis using a tomo densitometer (Stratec SA+, Hologic, Norland).
The average of the trabecular BMD of the mice in the ORX control group was defined as 0%. The average of the trabecular BMD of the mice in the SHAM control group was defined as 100%. The efficacy of each product as a percentage was calculated using the formula: (BMDtreated−BMDORX)/(BMDSHAM−BMDORX)×100
A subsequent ANOVA test was used for statistical analysis to identify the differences between groups.

[4] = test system: castrated immature young rats; test: Adapted model of Hershberger's test (levator ani and ventral prostate weight); assay type: in vivo, Sprague Dawley rats; conditions: Rattus norvegicus, po, 96 h
Method: The selective modulating activity of the androgen receptor was tested in a model of castrated immature young rats. This model, which is widely recognised for evaluating the anabolic effects of androgen compounds on the muscles and on the genitalia, has been described by Hershberger et al. 1953 Proc. Soc. Expt. Biol. Med. 83:175.
The method is based on the measurement of the well-known effects of androgens on the growth of the muscles and the accessory male sex organs in animals, and also in men. The consequences of castration appear in the form of a rapid involution and atrophy of the prostate and the seminal vesicles and of the anus-lifting muscle (levator ani). This effect may be completely compensated by an exogeneous administration of androgen, in particular of testosterone. The model is thus used to determine the capacity of the tested molecules to maintain the weight of the accessory sex and muscle organs in immature castrated rats, and therefore their androgenic efficacy.
Immature young Sprague Dawley rats (4 to 5 weeks old) weighing approximately 140-160 g (Charles River, Les Oncins, FRANCE) were distributed randomly in various groups and were kept in an environment at 22±2° C. with an alternating day/night cycle of 12 hours and ad libitum access to food and drink.
On day 0, that is, seven days before commencement of the first treatment, the rats were weighed individually then anaesthetised with an intraperitoneal dose of Ketamine/xylazine (85/15 mg/kg, approximately 2 ml/kg). Each animal was then placed on a sterile field and the abdomen and the scrotum were disinfected with Betadine and 70% alcohol. In the case of the orchidectomised control animals (ORX), the testicles were removed via an incision in the middle of the scrotum. A sterile suture was then made to ligature the supra-testicular portion of the tissue prior to surgical section of each testicle. The groups of animals to be treated by the tested compounds were operated on in an identical manner. In the case of the intact control animals (SHAM), the testicles were similarly extracted and reintroduced delicately to their original location. The site of surgical intervention was then sutured using sterile suture thread, and the site was disinfected again by application of Betadine. Each animal was then kept under a sterile pad until it awoke, before being returned to its cage. The animals were kept in an environment at 22±2° C. with an alternating day/night cycle of 12 hours and ad libitum access to food and drink. The animals were treated with the molecules to be tested from post-surgery day 7 and until day 10 preceding sacrifice (day 11).
The rats were split into groups and treated daily from day 7 to day 10 under the conditions defined below: • 1. SHAM control group: Vehicle (0.5% aqueous methyl cellulose) administered per os. • 2. ORX control group: Vehicle (0.5% aqueous methyl cellulose) administered per os. • 3. Treated ORX group: The tested compounds were administered individually per os in suspension in the vehicle described above, in a dose of 30 mg/kg.
After treatment for 4 successive days, the animals were decapitated using a guillotine. The levator ani and the ventral prostate were removed and weighed individually. For comparing inter-experimental data, the weight of each organ was standardised and expressed in milligrammes per 100 g of the weight of the animal (W). For each organ, the average of the standardised weights of the ORX control group was fixed by definition at 0% and the average of the standardised weights of the SHAM control group was fixed by definition at 100%. The efficacy of each product was expressed as a percentage and calculated using the following formula: (Wtreated−WORX)/(WSHAM−WORX)×100 A subsequent ANOVA test was used for statistical analysis to identify the differences between groups.

[5] = read-out: anabolic protection efficacy with regard to levator ani
[6] = read-out: androgenic efficacy with regard to the prostate

Row | Compound | KSchild (nM) potency [2] [nM] | inhibition in vivo at 30 mg/kg [3] [%] | inhibition in vivo at 30 mg/kg [4, 5] [%] | inhibition in vivo at 30 mg/kg [4, 6] [%] | melting point [°C] | further results
1 | CC1(c2ccc(O)cc2)C(=O)N(c2ccc(Cl)c(Cl)c2)C(=O)N1CCF (stereo not shown) | – | – | – | – | – | EC50 [1]: 8 nM
2 | C=CCN1C(=S)N(c2ccc(C#N)c(C(F)(F)F)c2)C(=O)C1(C)c1ccc(O)cc1 (stereo not shown) [Example 7, 4-[4-(4-hydroxyphenyl)-4-methyl-5-oxo-3-(2-propenyl)-2-thioxoimidazolidin-1-yl]-2-trifluoromethylbenzonitrile] | 3.46 | 40 to 130 | – | – | – | –
3 | Cc1c(N2C(=O)N(C)C(C)(c3ccc(O)cc3)C2=O)ccc(C#N)c1Cl (stereo not shown) [Example 8, 2-chloro-4-[3,4-dimethyl-2,5-dioxo-4-(4-hydroxyphenyl)imidazolidin-1-yl]-3-methylbenzonitrile] | – | 40 to 130 | 50 to 140 | 5 to 70 | – | –
4 | COc1cc(N2C(=O)N(C)[C@](C)(c3ccc(O)cc3)C2=O)ccc1C#N [Example 156.2, (R)-4-[3,4-dimethyl-2,5-dioxo-4-(4-hydroxyphenyl)imidazolidin-1-yl]-2-methoxybenzonitrile] | 1.5 | – | 50 to 140 | 5 to 70 | 100 | –
5 | CN1C(=O)N(c2ccc(Cl)c(Cl)c2)C(=O)C1(CO)c1ccc(O)cc1 (stereo not shown) [Example 175, 1-(3,4-dichlorophenyl)-4-hydroxymethyl-4-(4-hydroxyphenyl)-3-methylimidazolidine-2,5-dione] | – | – | – | – | 215.6 | EC50 ([2]; agonism, HALP2 cells (HeLa, hAR + ARE-luciferase), 20 hours at 37° C.): 1.38 nM; KSchild (nM) potency ([2]; antagonism, concentration which increases the EC50 of the DHT by a factor of 2, Schild regression, HALP2 cells): 0.37 nM; inhibition in vivo at 30 mg/kg ([4]; ORX rats, 30 mg/kg per os, 4 successive days, ORX = 0%, SHAM = 100%, read-out: anabolic protection efficacy with regard to levator ani): 50 to 140%; inhibition in vivo at 30 mg/kg ([4]; ORX rats, 30 mg/kg per os, 4 successive days, ventral prostate, ORX = 0%, SHAM = 100%, read-out: androgenic efficacy with regard to the prostate): 5 to 70%
6 | COCN1C(=O)N(c2ccc(C#N)c(C(F)(F)F)c2)C(=O)[C@@]1(C)c1ccc(O)cc1 [Example 222.1, (R)-4-[2,5-dioxo-4-(4-hydroxyphenyl)-3-methoxymethyl-4-methylimidazolidin-1-yl]-2-trifluoromethylbenzonitrile] | 4 | – | 50 to 140 | 5 to 70 | 97 | –
